Biological target: T1, Glf (Zymomonas mobilis sugar / glucose facilitator) (Zymomonas mobilis, UniProt P21906)
T1 construct: full-length glf coding region with 20 bp native flanks in pTrc99A (pGlfwt), no tag told; expressed in E. coli W derivatives EG29 and EG51A lacking glucose and xylose uptake
T1 sequence (P21906 1-473): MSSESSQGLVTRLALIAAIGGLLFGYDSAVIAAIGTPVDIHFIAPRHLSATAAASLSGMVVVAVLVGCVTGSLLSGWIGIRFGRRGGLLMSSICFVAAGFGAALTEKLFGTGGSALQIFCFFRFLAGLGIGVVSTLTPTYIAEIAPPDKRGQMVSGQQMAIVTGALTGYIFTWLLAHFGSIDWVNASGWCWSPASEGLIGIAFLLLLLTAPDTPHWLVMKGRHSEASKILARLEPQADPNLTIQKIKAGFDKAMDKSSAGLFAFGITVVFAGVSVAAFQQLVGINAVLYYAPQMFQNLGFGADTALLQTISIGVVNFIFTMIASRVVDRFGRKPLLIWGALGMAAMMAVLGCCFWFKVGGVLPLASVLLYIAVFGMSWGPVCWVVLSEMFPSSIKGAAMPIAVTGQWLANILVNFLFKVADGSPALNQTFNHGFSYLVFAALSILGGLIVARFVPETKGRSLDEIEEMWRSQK
Assay: xylose utilization in fermentation of transport-deficient E. coli with Glf vs empty vector (HPLC)
Assay type: cell-based, Escherichia coli
Conditions: E. coli EG51A (EG29 glk-), 34 g/l xylose alone, pH 7.0, 37 °C, 10 µM IPTG; facilitated uptake; whole-cell read-out

OC1OC[C@@H](O)[C@H](O)[C@H]1O (stereo partly drawn) [D-xylose]
xylose utilization in fermentation of transport-deficient E. coli with Glf vs em: EG51A transformed with pGlfwt showed much improved xylose utilization compared to EG51A with empty vector
